In PMC9848300, “Discovery of novel enasidenib analogues targeting inhibition of mutant isocitrate dehydrogenase 2 as antileukaemic agents” (Journal of Enzyme Inhibition and Medicinal Chemistry, 2023):
Like-named read-outs stand apart in the source and are kept apart here.

Tests used:
A498 = assay: NCI 60 antitumor screening (single dose / five doses); format: cell-based; conditions: Homo sapiens
SW-620 = assay: as above; format: cell-based, human; conditions: Homo sapiens
HT29 = assay: as above; format: cell-based, human; conditions: Homo sapiens
UACC-257 = assay: as above; format: cell-based; conditions: Homo sapiens
MALME-3M = assay: as above; format: cell-based; conditions: Homo sapiens, read-out: Growth inhibition percentage (GI %)
IGROV1 = assay: as above; format: cell-based; conditions: Homo sapiens
MDA-MB-468 = assay: as above; format: cell-based; conditions: Homo sapiens
SK-MEL-5 = assay: as above; format: cell-based; conditions: Homo sapiens
K-562 = assay: as above; format: cell-based; conditions: Homo sapiens
UO-31 = assay: as above; format: cell-based; conditions: Homo sapiens
ACHN = assay: as above; format: cell-based; conditions: Homo sapiens, read-out: Growth inhibition percentage (GI %)
SF-539 = assay: as above; format: cell-based; conditions: Homo sapiens
UACC-62 = assay: as above; format: cell-based; conditions: Homo sapiens
MOLT-4 = assay: as above; format: cell-based; conditions: Homo sapiens
COLO 205 = assay: as above; format: cell-based; conditions: Homo sapiens
HOP-92 = assay: as above; format: cell-based; conditions: Homo sapiens
SN 12C = assay: as above; format: cell-based; conditions: Homo sapiens, SN12C, read-out: Growth inhibition percentage (GI %)
NCI-H460 = assay: NCI 60 antitumor screening (single dose); format: cell-based; conditions: Homo sapiens; NCI-H460 (non-small cell lung cancer), single dose 10 μM; read-out: Growth inhibition percentage (GI %)
Outline: (§1)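 Values are GI% (100 minus percent growth, G%) from the NCI 60 cell line screen at one 10 μM concentration. Tests were done in triplicate under NCI protocol, with a mean across the whole panel reported as well.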

OVCAR-3 = assay: NCI 60 antitumor screening (single dose); format: cell-based; conditions: Homo sapiens
Outline: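 Single-dose NCI protocol, 10 μM, triplicate. Readout G%; GI% = 100 − G%.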

SF-268 = assay: NCI 60 antitumor screening (single dose); format: cell-based; conditions: Homo sapiens; SF-268 (CNS cancer), single dose 10 μM; read-out: Growth inhibition percentage (GI %)
Outline: as §1

EKVX = assay: NCI 60 antitumor screening (single dose / five doses); format: cell-based; conditions: Homo sapiens, read-out: Growth inhibition percentage (GI %)
CCRF-CEM = assay: as above; format: cell-based; conditions: Homo sapiens, read-out: Growth inhibition percentage (GI %)
SK-MEL-2 = assay: as above; format: cell-based; conditions: Homo sapiens
786-0 = assay: as above; format: cell-based; conditions: Homo sapiens
SR = assay: as above; format: cell-based; conditions: Homo sapiens, read-out: Growth inhibition percentage (GI %)
MDA-MB-435 = assay: as above; format: cell-based; conditions: Homo sapiens
MDA-MB-231/ATCC = assay: as above; format: cell-based; conditions: Homo sapiens
SK-MEL-28 = assay: as above; format: cell-based; conditions: Homo sapiens
[1] = A498 (renal cancer), single dose 10 μM, read-out: Growth inhibition percentage (GI %)
[2] = SW-620 (colon cancer), single dose 10 μM, read-out: Growth inhibition percentage (GI %)
[3] = HT-29, HT29 (colon cancer), single dose 10 μM, read-out: Growth inhibition percentage (GI %)
[4] = UACC-257 (melanoma), single dose 10 μM, read-out: Growth inhibition percentage (GI %)
[5] = MALME-3M (melanoma), single dose 10 μM
[6] = IGROV-1, IGROV1 (ovarian cancer), single dose 10 μM, read-out: Growth inhibition percentage (GI %)
[7] = MDA-MB-468 (breast cancer), single dose 10 μM, read-out: Growth inhibition percentage (GI %)
[8] = SK-MEL-5 (melanoma), single dose 10 μM, read-out: Growth inhibition percentage (GI %)
[9] = K562, K-562 (leukaemia), single dose 10 μM, read-out: Growth inhibition percentage (GI %)
[10] = UO-31 (renal cancer), single dose 10 μM, read-out: Growth inhibition percentage (GI %)
[11] = ACHN (renal cancer), single dose 10 μM
[12] = SF-539 (CNS cancer), single dose 10 μM, read-out: Growth inhibition percentage (GI %)
[13] = UACC-62 (melanoma), single dose 10 μM, read-out: Growth inhibition percentage (GI %)
[14] = MOLT-4 (leukaemia), single dose 10 μM, read-out: Growth inhibition percentage (GI %)
[15] = COLO 205 (colon cancer), single dose 10 μM, read-out: Growth inhibition percentage (GI %)
[16] = HOP-92 (non-small cell lung cancer), single dose 10 μM, read-out: Growth inhibition percentage (GI %)
[17] = SN 12C (renal cancer), single dose 10 μM
[18] = OVCAR-3 (ovarian cancer), single dose 10 μM, read-out: Growth inhibition percentage (GI %)
[19] = EKVX (non-small cell lung cancer), single dose 10 μM
[20] = CCRF-CEM (leukaemia), single dose 10 μM
[21] = SK-MEL-2 (melanoma), single dose 10 μM, read-out: Growth inhibition percentage (GI %)
[22] = 786-0, 786-0 (renal cancer), single dose 10 μM, read-out: Growth inhibition percentage (GI %)
[23] = SR (leukaemia), single dose 10 μM
[24] = MDA-MB-435 (melanoma), single dose 10 μM, read-out: Growth inhibition percentage (GI %)
[25] = MDA-MB-231/ATCC (breast cancer), single dose 10 μM, read-out: Growth inhibition percentage (GI %)
[26] = SK-MEL-28 (melanoma), single dose 10 μM, read-out: Growth inhibition percentage (GI %)

Question: Which results are given for `O=[N+]([O-])c1cc(/C=N/Nc2nc(N/N=C/c3ccc(Cl)c([N+](=O)[O-])c3)nc(N3CCOCC3)n2)ccc1Cl` [compound 6i, 2,4-Bis[(E)-2-[(4-Chloro-3-nitrophenyl)methylidene]hydrazin-1-yl]-6-(morpholin-4-yl)-1,3,5-triazine]?
Answer: inhibition at 10 µM (A498; A498, read-out: Growth inhibition percentage (GI %)): -10.3%; inhibition at 10 µM (SW-620; SW-620, read-out: Growth inhibition percentage (GI %)): -6.94%; inhibition at 10 µM (HT29; HT-29, read-out: Growth inhibition percentage (GI %)): -2.29%; inhibition at 10 µM (UACC-257; UACC-257, read-out: Growth inhibition percentage (GI %)): -2.78%; inhibition at 10 µM (MALME-3M; Malme-3M): -29.9%; inhibition at 10 µM (IGROV1; IGROV-1, read-out: Growth inhibition percentage (GI %)): 7.34%; inhibition at 10 µM (MDA-MB-468; MDA-MB-468, read-out: Growth inhibition percentage (GI %)): 27.1%; inhibition at 10 µM (SK-MEL-5; SK-MEL-5, read-out: Growth inhibition percentage (GI %)): 3.31%; inhibition at 10 µM (K-562; K562, read-out: Growth inhibition percentage (GI %)): 31.4%; inhibition at 10 µM (UO-31; UO-31, read-out: Growth inhibition percentage (GI %)): 22.3%; inhibition at 10 µM (ACHN; ACHN): -2.76%; inhibition at 10 µM (SF-539; SF-539, read-out: Growth inhibition percentage (GI %)): 6.38%; inhibition at 10 µM (UACC-62; UACC-62, read-out: Growth inhibition percentage (GI %)): 9.59%; inhibition at 10 µM (MOLT-4; MOLT-4, read-out: Growth inhibition percentage (GI %)): 13.3%; inhibition at 10 µM (COLO 205; COLO 205, read-out: Growth inhibition percentage (GI %)): -4.66%; inhibition at 10 µM (HOP-92; HOP-92, read-out: Growth inhibition percentage (GI %)): -20.3%; inhibition at 10 µM (SN 12C): 9.02%; inhibition at 10 µM (NCI-H460): -1.58%; inhibition at 10 µM (OVCAR-3; OVCAR-3, read-out: Growth inhibition percentage (GI %)): -10%; inhibition at 10 µM (SF-268): 0.39%; inhibition at 10 µM (EKVX; EKVX): 0.07%; inhibition at 10 µM (CCRF-CEM; CCRF-CEM): 12.2%; inhibition at 10 µM (SK-MEL-2; SK-MEL-2, read-out: Growth inhibition percentage (GI %)): -2.6%; inhibition at 10 µM (786-0; 786-0, read-out: Growth inhibition percentage (GI %)): -8.76%; inhibition at 10 µM (SR; SR): 18.5%; inhibition at 10 µM (MDA-MB-435; MDA-MB-435, read-out: Growth inhibition percentage (GI %)): -7.52%; inhibition at 10 µM (MDA-MB-231/ATCC; MDA-MB-231, read-out: Growth inhibition percentage (GI %)): 3.16%; inhibition at 10 µM (SK-MEL-28; SK-MEL-28, read-out: Growth inhibition percentage (GI %)): -4.35%

Question: What does the source list for `Oc1ccc(/C=N/Nc2nc(N/N=C/c3ccc(O)c(O)c3)nc(N3CCOCC3)n2)cc1O` [compound 6j, 4-[(1e)-(2-{4-[(E)-2-[(3,4-Dihydroxyphenyl)methylidene]hydrazin-1-yl]-6-(morpholin-4-yl)-1,3,5-triazin-2-yl}hydrazin-1-ylidene)methyl]benzene-1,2-diol]?
Answer: inhibition at 10 µM (A498; [1]): 2.87%; inhibition at 10 µM (SW-620; [2]): -3.6%; inhibition at 10 µM (HT29; [3]): -12%; inhibition at 10 µM (UACC-257; [4]): -3.12%; inhibition at 10 µM (MALME-3M; [5]): -4.04%; inhibition at 10 µM (IGROV1; [6]): -6.08%; inhibition at 10 µM (MDA-MB-468; [7]): 6.49%; inhibition at 10 µM (SK-MEL-5; [8]): 2.65%; inhibition at 10 µM (K-562; [9]): -5.6%; inhibition at 10 µM (UO-31; [10]): 15.4%; inhibition at 10 µM (ACHN; [11]): -1.32%; inhibition at 10 µM (SF-539; [12]): -3.18%; inhibition at 10 µM (UACC-62; [13]): 2.19%; inhibition at 10 µM (MOLT-4; [14]): -1.68%; inhibition at 10 µM (COLO 205; [15]): -7.11%; inhibition at 10 µM (HOP-92; [16]): -7.35%; inhibition at 10 µM (SN 12C; [17]): 0.16%; inhibition at 10 µM (NCI-H460): -7.99%; inhibition at 10 µM (OVCAR-3; [18]): -4.79%; inhibition at 10 µM (SF-268): -2.53%; inhibition at 10 µM (EKVX; [19]): 5.31%; inhibition at 10 µM (CCRF-CEM; [20]): -2.09%; inhibition at 10 µM (SK-MEL-2; [21]): 3.04%; inhibition at 10 µM (786-0; [22]): -3.75%; inhibition at 10 µM (SR; [23]): 8.3%; inhibition at 10 µM (MDA-MB-435; [24]): -3.12%; inhibition at 10 µM (MDA-MB-231/ATCC; [25]): 1.27%; inhibition at 10 µM (SK-MEL-28; [26]): -2.58%

Question: Which inhibition at 10 µM (A498; [1]) does the source give for `Fc1cccc(Cl)c1/C=N/Nc1nc(N/N=C/c2c(F)cccc2Cl)nc(N2CCOCC2)n1` [compound 6l, 2,4-Bis[(E)-2-[(2-Chloro-6-fluorophenyl)methylidene]hydrazin-1-yl]-6-(morpholin-4-yl)-1,3,5-triazine] here?
Answer: 26.9%

Question: What about the inhibition at 10 µM (SW-620; [2]) of the same molecule?
Answer: 9.73%

Question: What about the inhibition at 10 µM (HT29; [3]) of the same molecule?
Answer: 30.6%

Question: What about the inhibition at 10 µM (UACC-257; [4]) of the same molecule?
Answer: 17%

Question: What about the inhibition at 10 µM (MALME-3M; [5]) of the same molecule?
Answer: 16%

Question: And the inhibition at 10 µM (IGROV1; [6])?
Answer: 41.4%

Question: And the inhibition at 10 µM (MDA-MB-468; [7])?
Answer: 24.6%

Question: And the inhibition at 10 µM (SK-MEL-5; [8])?
Answer: 44.9%

Question: And the inhibition at 10 µM (K-562; [9])?
Answer: 43%

Question: And the inhibition at 10 µM (UO-31; [10])?
Answer: 33.5%

Question: What about the inhibition at 10 µM (ACHN; [11]) of the same molecule?
Answer: 7.67%

Question: And the inhibition at 10 µM (SF-539; [12])?
Answer: 7.53%

Question: And the inhibition at 10 µM (UACC-62; [13])?
Answer: 19.8%

Question: And the inhibition at 10 µM (MOLT-4; [14])?
Answer: 18.2%

Question: And the inhibition at 10 µM (COLO 205; [15])?
Answer: 29.6%

Question: What about the inhibition at 10 µM (HOP-92; [16]) of the same molecule?
Answer: 27%

Question: And the inhibition at 10 µM (SN 12C; [17])?
Answer: 15.3%

Question: And the inhibition at 10 µM (NCI-H460)?
Answer: 23.1%

Question: And the inhibition at 10 µM (OVCAR-3; [18])?
Answer: 22.9%

Question: What about the inhibition at 10 µM (SF-268) of the same molecule?
Answer: 11.2%

Question: What about the inhibition at 10 µM (EKVX; [19]) of the same molecule?
Answer: 45.5%

Question: What about the inhibition at 10 µM (CCRF-CEM; [20]) of the same molecule?
Answer: 18.9%

Question: What about the inhibition at 10 µM (SK-MEL-2; [21]) of the same molecule?
Answer: 17.1%

Question: What about the inhibition at 10 µM (786-0; [22]) of the same molecule?
Answer: 3.32%

Question: And the inhibition at 10 µM (SR; [23])?
Answer: 27.8%

Question: And the inhibition at 10 µM (MDA-MB-435; [24])?
Answer: 19.4%

Question: And the inhibition at 10 µM (MDA-MB-231/ATCC; [25])?
Answer: 10.7%

Question: And the inhibition at 10 µM (SK-MEL-28; [26])?
Answer: 10%
